Measurements published in US20240327415A1, “Multicomponent Complexes, Including Salts, Crystalline Forms, and Hydrates and Solvates of ENT1 Inhibitors” (iTeos Belgium SA, priority 2023, published 2024).

Tests used:
Assay type in all cases: physicochemical
[1] = Variable Humidity X-Ray Powder Diffraction (VH-XRPD)
Procedure: (§1) In the examples below, VH-XRPD analysis was carried out on a Philips X'Pert Pro Multipurpose diffractometer equipped with a humidity chamber. The samples were scanned between 4 and 36° 2θ using Cu K radiation (α1λ=1.54060 Å; α2=1.54443 Å; β=1.39225 Å; α1: α2 ratio=0.5; most, if not all, B radiation is removed from the beam using an X-ray mirror) running in Bragg-Brentano geometry (step size 0.008° 2θ) using 40 kV/40 mA generator settings. Measurements were carried out from 2-90% RH, with a final measurement taken at 40% RH.
as §1, with “VH-XRPD” for “In the examples below, VH-XRPD”, “radiation (α1 λ=1.54060” for “radiation (α1λ=1.54060”, “Å; α1:α2” for “Å; α1: α2”, “all, β” for “all, B”, “from 6-90% relative humidity (RH),” for “from 2-90% RH,”

[2] = hydration mapping studies (slurries at different water activities, Example 17)
Procedure: Example 17—Hydration Mapping Studies-Crystalline Form 2 Compound 1 di(hydrogen sulfate) trihydrate, Crystalline Form 3 Compound 1 di(hydrogen sulfate), and Blend: The effects of different water activities on crystalline Form 2 Compound 1 di(hydrogen sulfate) trihydrate, crystalline Form 3 Compound 1 di(hydrogen sulfate) and a blend of the two were investigated. The “blend” was prepared by mixing crystalline Form 2 Compound 1 di(hydrogen sulfate) trihydrate and crystalline Form 3 Compound 1 di(hydrogen sulfate) in a 1:1 ratio. To the vials containing the required solid material, the appropriate solvent system was added to form slurries. The slurry samples were stirred at the required temperatures during and after the solvent addition. Where dissolution was observed post-solvent addition, additional solid was added to re-saturate the sample. After stirring at the required temperature for 48 hours, the residual solids left in the vials were analyzed by XRPD to assess the solid forms. The analyzed samples were then dried on the XRPD plate under reduced pressure at 40° C. for 24 hr. The dried samples were analyzed by XRPD.

[3] = pH solubility studies in buffers and biorelevant media (Example 16); set-up: key: A: amorphous; Crystalline Form 10 mono(hydrogen sulfate); settings: pH 6.8 (Phosphate), 24 h
Procedure: Example 16—pH Solubility Studies—(1) Crystalline Form 2 Compound 1 di(hydrogen sulfate) trihydrate, (2) Crystalline Form 3 Compound 1 di(hydrogen sulfate), and (3) Crystalline Form 4 Compound 1 mono(hydrogen sulfate): pH solubility studies were carried out on the prepared crystalline Form 2 Compound 1 di(hydrogen sulfate) trihydrate, crystalline Form 3 Compound 1 di(hydrogen sulfate) and crystalline Form 4 Compound 1 mono(hydrogen sulfate) in the following media: (1) HCl/KCl, pH 1.2; (2) Acetate, pH 4.5; (3) Phosphate, pH 6.8; (4) FaSSIF; (5) FeSSIF; and (6) FaSSGF. Slurries of the hydrogen sulfate forms were prepared in the appropriate medium and stirred at 25° C. For the experiments in the buffer media, the pH of the slurry samples was measured and adjusted as required after 1 hour and 23 hours of the slurrying. Additional solid was added where dissolution was observed post-adjustment. The pH of the samples in the biorelevant media was measured at the 23 hour timepoint. No pH adjustment was made for the biorelevant media. After a total of 24 hours of slurrying, the mother liquors were extracted via centrifugation, and the concentrations and solution purity were determined by HPLC. The residual solids were isolated and analyzed by XRPD and are shown in FIG. 77, FIG. 78, and FIG. 79. The assessment was repeated for some of the samples, where required.

[4] = Variable Temperature X-Ray Powder Diffraction (VT-XRPD); set-up: key: Crystalline Form 3 di(hydrogen sulfate); Crystalline Form 9 di(hydrogen sulfate); Melt/Amorphous
Procedure: as §1, with “VT-XRPD” for “VH-XRPD”, “temperature” for “humidity”, “(α1 λ=1.54060” for “(α1λ=1.54060”, “ambient temperature to an upper limit of 250° C.,” for “2-90% RH,”, “after cooling.” for “at 40% RH.”
VT-XRPD analysis was carried out on a Philips X'Pert Pro Multipurpose diffractometer equipped with a temperature chamber. The samples were scanned between 4 and 36° 2θ using Cu K radiation (α1 λ=1.54060 Å; α2=1.54443 Å; β2=1.39225 Å; α1:α2 ratio=0.5; most, if not all, β radiation is removed from the beam using an X-ray mirror) running in Bragg-Brentano geometry (step size 0.008° 2θ) using 40 kV/40 mA generator settings. Measurements were carried out from ambient temperature to an upper limit of 250° C., with a final measurement taken after cooling.

[5] = second Heating, 150° C., hold 30 min
[6] = second Heating, 160° C., hold 30 min

For COc1cc(C(=O)O[C@@H]2CCCOc3cc(cc(OC)c3OC)C(=O)NCCCN3CCCN(CC2)CC3)cc(OC)c1OC.O=S(=O)(O)O.O=S(=O)(O)O [crystalline Form 3 Compound 1 di(hydrogen sulfate)], the “VH-XRPD: Conv. To Form 6→Form 2 at” value [1] was “Form 2 at ≥70% RH”, the “VH-XRPD: input form retained at” value [1] was “at 10-60% RH” and the “relative humidity range in which peaks of crystalline Form 6 Compound 1 di(hydrogen sulfate) are observed in addition” value [1] was 70-80 % RH. For the same compound, the “relative humidity range in which the form is retained (VH-XRPD)” value [1] was 2-60 % RH, the “relative humidity at which conversion to crystalline Form 2 Compound 1 di(hydrogen sulfate) trihydrate is observed” value ([1]; Form 3: after extended exposure) was no less than 80 % RH and the “solid form by XRPD after slurrying” value ([2]; solvent systems with aw=0.1, 48 hours) was “retained”. For the same compound, the “solid form by XRPD after slurrying” value ([2]; solvent systems with aw=0.9, 48 hours) was “Conversion to crystalline Form 2 Compound 1 di(hydrogen sulfate) trihydrate”, the “XRPD of residual solids” value ([3]; attempt 1, 25° C.) was “A” and the “XRPD of residual solids” value ([3]; attempt 2, 25° C.) was “A”. For the same compound, the “VT-XRPD Results” value ([4]; Cooling, 30° C., hold 10 min) was 9, the “VT-XRPD Results” value ([4]; Heating, 70° C., hold 30 min) was 9 and the “VT-XRPD Results” value ([4]; Heating, 90° C., hold 30 min) was 9. For the same compound, the “VT-XRPD Results” value ([4]; Heating, 105° C., hold 30 min) was 9, the “VT-XRPD Results” value ([4]; second Heating, 120° C., hold 30 min) was 9 and the “VT-XRPD Results” value ([4]; second Heating, 130° C., hold 30 min) was 9. The “VT-XRPD Results” value ([4]; second Heating, 140° C., hold 30 min) was 9, the “VT-XRPD Results” value [4, 5] was 9 and the “VT-XRPD Results” value [4, 6] was 9 and Melt.

In the case of CCCN1CCNCCCNC(=O)c2cc(OC)c(OC)c(c2)OCCC[C@@H](OC(=O)c2cc(OC)c(OC)c(OC)c2)CC1, the “VH-XRPD: Conv. To Form 5 at” value [1] is reported as 5 at 6% RH, the “VH-XRPD: input form retained at” value [1] is reported as “at 10-80% RH” and the “VH-XRPD Results” value ([1]; Desorption, 6% RH, hold 60 min) is reported as 5, PC. For the same compound, the “solid form by XRPD after slurrying” value ([2]; acetonitrile:water (aw=0.1) at 50° C., 48 hours) was “conversion to crystalline Form 6 Compound 1 di(hydrogen sulfate)”, the “solid form by XRPD after slurrying” value ([2]; the rest of the samples, 48 hours) was “consistent with crystalline Form 2 Compound 1 di(hydrogen sulfate) trihydrate” and the “VT-XRPD Results” value [4, 5] was “Melt”. The “VT-XRPD Results” value [4, 6] was “Melt”.

For COc1cc(C(=O)O[C@@H]2CCCOc3cc(cc(OC)c3OC)C(=O)NCCCN3CCCN(CC2)CC3)cc(OC)c1OC.O=S(=O)(O)O, the “XRPD of residual solids” value ([3]; 25° C.) was “A”.
